Results reported in patent US7183260B2, “C-terminal modified oxamyl dipeptides as inhibitors of the ICE/ced-3 family of cysteine proteases” (Idun Pharmaceuticals, Inc., priority 1998, dated 2007).
Where a SMILES comes first, the peptide text is derived from it. The star is where a group is joined. Cbz = O=C(OCc1ccccc1)*

Tests used:
Assay type in all cases: biochemical
MCH-2 [1] = molecular target: T1, MCH-2 (Homo sapiens, UniProt P55212); assay: Fluorescence enzyme assay, determination of IC50 values (Mch2); conditions: 30 min preincubation, substrate Acetyl-Asp-Glu-Val-Asp-AMC, room temperature
T1 sequence (P55212 24-179 limits assumed): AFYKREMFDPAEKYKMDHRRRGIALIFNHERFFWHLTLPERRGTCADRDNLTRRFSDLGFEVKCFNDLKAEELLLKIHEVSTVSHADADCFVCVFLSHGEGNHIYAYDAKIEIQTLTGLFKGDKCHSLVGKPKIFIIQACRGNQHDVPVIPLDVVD
T1 sequence (P55212 194-293 limits assumed): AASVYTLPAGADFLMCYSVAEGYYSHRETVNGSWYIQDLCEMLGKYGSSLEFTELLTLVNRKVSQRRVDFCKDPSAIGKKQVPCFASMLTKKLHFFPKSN
Experimental: (§1) Fluorescence enzyme assays detecting the activity of the compounds of Formula I utilizing the recombinant ICE and CPP32 enzymes are performed essentially according to Thornberry et al. (Nature, 356:768:774 (1992)) and Nicholson et al. (Nature, 376:37–43 (1995)) respectively, (herein incorporated by reference) in 96 well microtiter plates. The substrate is Acetyl-Tyr-Val-Ala-Asp-amino-4-methylcoumarin (AMC) for the ICE assay and Acetyl-Asp-Glu-Val-Asp-amino-4-methylcoumarin for the CPP32, Mch2, Mch3 and Mch5 assays. Enzyme reactions are run in ICE buffer (25 mM HEPES, 1 mM EDTA, 0.1% CHAPS, 10% sucrose, pH 7.5) containing 2 mM DTT at room temperature in duplicate.
(§2) The enzyme and the compound of Formula I to be assayed are allowed to preincubate in the microtitre plate wells for 30 minutes at room temperature prior to the addition of substrate to initiate the reaction. Fluorescent AMC product formation is monitored for one hour at room temperature by measuring the fluorescence emission at 460 nm using an excitation wavelength of 360 nm.
(§3) The reference compound for this assay was Cbz-ValAlaAsp-H and the values are denoted in Table 1 as “Reference”.

MCH-3 = molecular target: T2, MCH-3 (Homo sapiens, UniProt P55210); assay: Fluorescence enzyme assay, determination of IC50 values (Mch3); conditions: 30 min preincubation, substrate Acetyl-Asp-Glu-Val-Asp-AMC, room temperature
T2 sequence (P55210 24-198 limits assumed): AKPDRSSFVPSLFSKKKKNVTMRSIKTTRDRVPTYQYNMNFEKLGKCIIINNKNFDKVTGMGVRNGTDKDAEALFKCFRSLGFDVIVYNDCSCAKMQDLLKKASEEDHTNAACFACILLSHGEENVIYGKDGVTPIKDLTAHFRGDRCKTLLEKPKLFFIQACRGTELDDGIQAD
T2 sequence (P55210 207-303 limits assumed): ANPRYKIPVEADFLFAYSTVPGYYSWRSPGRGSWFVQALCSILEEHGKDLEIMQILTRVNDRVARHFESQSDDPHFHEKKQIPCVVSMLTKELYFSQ
Experimental: as §1, §2, §3

CPP32 [2] = molecular target: T3, CPP32 (Homo sapiens, UniProt P42574); assay: Fluorescence enzyme assay, determination of IC50 values (CPP32); conditions: recombinant enzyme, 30 min preincubation, substrate Acetyl-Asp-Glu-Val-Asp-AMC, room temperature
T3 sequence (P42574 29-175 limits assumed): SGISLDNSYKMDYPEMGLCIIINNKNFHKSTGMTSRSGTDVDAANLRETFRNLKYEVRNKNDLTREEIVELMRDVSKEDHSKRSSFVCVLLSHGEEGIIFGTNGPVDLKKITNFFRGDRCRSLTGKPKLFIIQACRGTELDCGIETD
T3 sequence (P42574 176-277 limits assumed): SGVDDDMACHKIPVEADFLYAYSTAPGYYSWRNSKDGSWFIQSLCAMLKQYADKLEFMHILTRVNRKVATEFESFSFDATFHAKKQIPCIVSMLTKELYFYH
Experimental: as §1, §2, §3

MCH-5 [3] = molecular target: T4, MCH-5 (Homo sapiens, UniProt Q14790); assay: Fluorescence enzyme assay, determination of IC50 values (Mch5); conditions: 30 min preincubation, substrate Acetyl-Asp-Glu-Val-Asp-AMC, room temperature
Experimental: The substrate is Acetyl-Tyr-Val-Ala-Asp-amino-4-methylcoumarin (AMC) for the ICE assay and Acetyl-Asp-Glu-Val-Asp-amino-4-methylcoumarin for the CPP32, Mch2, Mch3 and Mch5 assays. Enzyme reactions are run in ICE buffer (25 mM HEPES, 1 mM EDTA, 0.1% CHAPS, 10% sucrose, pH 7.5) containing 2 mM DTT at room temperature in duplicate.
as §2, §3

mICE [4] = molecular target: T5, mICE (Mus musculus, UniProt P29452); assay: Fluorescence enzyme assay, determination of IC50 values (ICE); conditions: recombinant enzyme, 30 min preincubation, substrate Acetyl-Tyr-Val-Ala-Asp-AMC, room temperature
T5 sequence (P29452 123-296 limits assumed): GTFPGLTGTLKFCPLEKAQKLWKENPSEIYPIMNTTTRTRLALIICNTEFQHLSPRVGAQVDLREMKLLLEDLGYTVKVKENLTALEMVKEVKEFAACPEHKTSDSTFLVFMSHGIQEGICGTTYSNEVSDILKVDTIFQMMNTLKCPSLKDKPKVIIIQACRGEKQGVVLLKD
T5 sequence (P29452 315-402 limits assumed): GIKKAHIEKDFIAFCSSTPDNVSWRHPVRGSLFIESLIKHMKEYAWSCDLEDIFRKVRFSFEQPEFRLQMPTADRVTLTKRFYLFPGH
Experimental: as §1, §2, §3

mICE [5] = molecular target: T5, mICE; assay: Dissociation constant Ki and irreversible rate constant k3 for irreversible inhibitors (ICE); conditions: continuous assay 60 min, reaction initiated by adding enzyme to substrate-inhibitor mixture
CPP32 [6] = molecular target: T3, CPP32; assay: Dissociation constant Ki and irreversible rate constant k3 for irreversible inhibitors (CPP32); conditions: continuous assay 60 min, reaction initiated by adding enzyme to substrate-inhibitor mixture
MCH-5 [7] = molecular target: T4, MCH-5; assay: Dissociation constant Ki and irreversible rate constant k3 for irreversible inhibitors (Mch5); conditions: continuous assay 60 min, reaction initiated by adding enzyme to substrate-inhibitor mixture
MCH-2 [8] = molecular target: T1, MCH-2; assay: Dissociation constant Ki and irreversible rate constant k3 for irreversible inhibitors (Mch2); conditions: continuous assay 60 min, reaction initiated by adding enzyme to substrate-inhibitor mixture

T4 sequence (Q14790 217-374 limits assumed, species assumed): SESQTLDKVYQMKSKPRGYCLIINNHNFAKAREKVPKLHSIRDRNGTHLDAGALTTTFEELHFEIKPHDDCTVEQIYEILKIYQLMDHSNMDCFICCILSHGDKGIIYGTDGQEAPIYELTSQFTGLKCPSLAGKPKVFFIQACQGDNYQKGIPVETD
T4 sequence (Q14790 385-479 limits assumed, species assumed): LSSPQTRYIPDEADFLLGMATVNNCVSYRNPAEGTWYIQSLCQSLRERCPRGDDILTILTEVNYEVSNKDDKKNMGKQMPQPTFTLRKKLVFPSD

SMILES | IC50 (MCH-2 [1]) | IC50 (MCH-3) | IC50 (CPP32 [2]) | IC50 (MCH-5 [3]) | IC50 (mICE [4]) | Ki (mICE [5]) | mICE k3/Ki (mICE [5]) | CPP32 k3/Ki (CPP32 [6]) | Ki (CPP32 [6]) | Ki (MCH-5 [7]) | MCH-5 k3/Ki (MCH-5 [7]) | Ki (MCH-2 [8]) | MCH-2 k3/Ki (MCH-2 [8])
CC(C)C[C@H](NC(=O)C(=O)Nc1cccc2ccccc12)C(=O)N[C@H](C=O)CC(=O)O [Example 1, (3S)-3-[N-(N′-(1-NAPHTHYL)OXAMYL)LEUCINYL]AMINO-4-OXOBUTANOIC ACID] | 1500 nM | 267 nM | 10 nM | 179 nM | 27 nM |  |  |  |  |  |  |  | 
CC(C)[C@H](NC(=O)OCc1ccccc1)C(=O)N[C@@H](C)C(=O)N[C@H](C=O)CC(=O)O [reference, Cbz-ValAlaAsp-H, reference compound] (Cbz-Val-Ala-Asp-aldehyde) | > 10000 nM | > 10000 nM | 47000 nM | 2960 nM | 64 nM |  |  |  |  |  |  |  | 
C[C@H](NC(=O)C(=O)Nc1cccc2c1CCCC2)C(=O)N[C@@H](CC(=O)O)C(=O)COP(=O)(c1ccccc1)c1ccccc1 [Example 48] |  |  |  |  |  | 11 nM | 905,000 moles^−1 seconds^−1 | 139,000 moles^−1 seconds^−1 | 69 nM | 4.1 nM | 1,150,000 moles^−1 seconds^−1 | 22 nM | 132,000 moles^−1 seconds^−1
C[C@H](NC(=O)C(=O)Nc1ccccc1C(C)(C)C)C(=O)N[C@@H](CC(=O)O)C(=O)COC(=O)c1c(Cl)cccc1Cl [Example 37] |  |  |  |  |  | 465 nM | 43,300 moles^−1 seconds^−1 | 142,000 moles^−1 seconds^−1 | 78 nM | 83 nM | 39,100 moles^−1 seconds^−1 | 13 nM | 191,000 moles^−1 seconds^−1
CC(C)[C@H](NC(=O)C(=O)Nc1cccc2ccccc12)C(=O)N[C@@H](CC(=O)O)C(=O)COc1cccc2ccccc12 [Example 18] |  |  |  |  |  | 33 nM | 254,000 moles^−1 seconds^−1 | 180,000 moles^−1 seconds^−1 | 46 nM | 10 nM | 177,000 moles^−1 seconds^−1 | 20 nM | 83,700 moles^−1 seconds^−1
COc1ccccc1NC(=O)C(=O)N[C@H](C(=O)N[C@@H](CC(=O)O)C(=O)COc1c(F)c(F)cc(F)c1F)C(C)C [Example 95] |  |  |  |  |  | 6 nM | 2,068,000 moles^−1 seconds^−1 | 10,800 moles^−1 seconds^−1 | 1090 nM | 3 nM | 2,680,000 moles^−1 seconds^−1 | 88 nM | 61,500 moles^−1 seconds^−1
C[C@H](NC(=O)C(=O)Nc1ccccc1-c1ccccc1)C(=O)N[C@@H](CC(=O)O)C(=O)COC(=O)c1c(Cl)cccc1Cl [Example 29] |  |  |  |  |  | 38 nM | 259,000 moles^−1 seconds^−1 | 388,000 moles^−1 seconds^−1 | 15 nM | 17 nM | 125,000 moles^−1 seconds^−1 | 9 nM | 219,000 moles^−1 seconds^−1
C[C@H](NC(=O)C(=O)Nc1ccccc1-c1ccccc1)C(=O)N[C@@H](CC(=O)O)C(=O)COc1ccccc1F [Example 28] |  |  |  |  |  | 46 nM | 167,000 moles^−1 seconds^−1 | 55,600 moles^−1 seconds^−1 | 109 nM | 5.8 nM | 37,800 moles^−1 seconds^−1 | 42 nM | 35,000 moles^−1 seconds^−1
